The target of this test is Tumour suppressor p53/oncoprotein Mdm2 (Homo sapiens, UniProt P04637+Q00987). The experiment in a line: In vitro inhibitory concentration against p53-mdm2 interaction. The format is protein assay.
Sequence of Tumour suppressor p53/oncoprotein Mdm2 (P04637 whole entry): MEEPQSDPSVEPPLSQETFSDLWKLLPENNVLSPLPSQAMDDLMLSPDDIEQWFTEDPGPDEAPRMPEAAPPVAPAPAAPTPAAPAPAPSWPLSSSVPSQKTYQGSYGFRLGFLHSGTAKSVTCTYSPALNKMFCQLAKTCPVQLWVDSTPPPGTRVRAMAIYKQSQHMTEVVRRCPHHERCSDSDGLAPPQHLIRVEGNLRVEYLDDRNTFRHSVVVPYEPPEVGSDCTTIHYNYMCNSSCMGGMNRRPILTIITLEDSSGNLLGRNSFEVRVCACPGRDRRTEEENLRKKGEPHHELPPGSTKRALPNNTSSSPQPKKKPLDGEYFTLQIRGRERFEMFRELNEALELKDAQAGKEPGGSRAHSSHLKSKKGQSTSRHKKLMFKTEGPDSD
Sequence of Tumour suppressor p53/oncoprotein Mdm2 (Q00987 whole entry): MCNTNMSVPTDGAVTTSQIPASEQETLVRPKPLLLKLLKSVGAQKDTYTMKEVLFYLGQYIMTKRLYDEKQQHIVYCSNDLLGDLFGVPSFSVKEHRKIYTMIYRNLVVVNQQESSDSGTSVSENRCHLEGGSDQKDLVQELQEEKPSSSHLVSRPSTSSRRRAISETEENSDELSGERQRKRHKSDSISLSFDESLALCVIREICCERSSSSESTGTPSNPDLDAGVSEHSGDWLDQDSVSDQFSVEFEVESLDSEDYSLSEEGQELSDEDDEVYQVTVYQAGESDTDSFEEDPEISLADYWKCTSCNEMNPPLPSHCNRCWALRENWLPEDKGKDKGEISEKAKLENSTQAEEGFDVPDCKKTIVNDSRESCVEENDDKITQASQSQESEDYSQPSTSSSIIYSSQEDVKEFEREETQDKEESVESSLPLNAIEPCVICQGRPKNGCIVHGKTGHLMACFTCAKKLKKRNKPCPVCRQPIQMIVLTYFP

For `CC(C)Oc1ccc(C(=O)NS(=O)(=O)c2ccc(NN=C3C(=O)N(c4ccccc4)N(c4ccccc4)C3=O)cc2)cc1`, the IC50 stood at 31.8 µM.

By IC50 is commonly meant the midpoint of a concentration-inhibition curve. Read a low IC50 as higher potency.

The values are drawn from ChEMBL document CHEMBL1137206, “A nonpeptidic sulfonamide inhibits the p53-mdm2 interaction and activates p53-dependent transcription in mdm2-overexpressing cells” (J Med Chem, 2004).
